Assay results: patent US11421026B2, “Antibodies that bind human cannabinoid 1 (CB1) receptor” (BIRD ROCK BIO, Inc., priority 2015, dated 2022)

Assays:
[1] = biological target: T1, human CB1 expressing TRex-CHO cells (Homo sapiens, UniProt P21554); assay type: cell-based; details: forskolin stimulated TRex-CHO CB1 cells
T1 construct: pcDNA4/TO native full length human CB1 receptor construct was transfected into tetracycline inducible system Trex-CHO and Trex-293 cells; expressed in transfected cells
Protocol: Data analysis was performed using GraphPad Prism software.
Data analysis was performed using GraphPad Prism.

[2] = biological target: T2, CB1 surface expression (CB1 TRex-CHO / TRex-293 cells) (Homo sapiens, UniProt P21554); assay type: cell-based; details: antibody 300 nM pre-treatment, 1 μM WIN55,212 1 hour
T2 construct: pcDNA4/TO native full length human CB1 receptor construct was transfected into tetracycline inducible system Trex-CHO and Trex-293 cells; expressed in transfected cells; tetracycline induced
Protocol: 5×10^5 cells/well stably expressing CB1 TRex-CHO cells were seeded in a 6-well plate. Tetracycline (1 μg/ml) was added to culture medium for 24 hours to induce CB1 expression. On the day of the experiment, cells were serum starved for 2 hours. Cells were then pre-incubated with CB1 antibody (300 nM), AM6545 (CB1 neutral antagonist) and negative control (BRIL binder) for half an hour. […] Surface expression of CB1 was stained with anti-CB1 N-terminus mouse monoclonal antibody from R&D and the mean fluorescence intensity (MFI) was determined using flow cytometry.
The impact of CB1 antibody on receptor internalization was also investigated. […] Cells were harvested and stained with anti-CB1 N-terminus mouse monoclonal antibody (R&D).
On the day of the experiment, cells were serum starved for 2 hours. Cells were then pre-incubated with CB1 antibody (300 nM), AM6545 (CB1 neutral antagonist) and negative control (BRIL binder) for half an hour. […] Surface expression of CB1 was stained with anti-CB1 N-terminus mouse monoclonal antibody from R&D and the mean fluorescence intensity (MFI) was determined using flow cytometry (Guava).

[3] = tested on: CB1 receptor signaling, WIN55,212 induced ERK phosphorylation in Trex-CHO CB1 receptor cells; assay: ERK activation assay (western blot); assay type: cell-based, human; details: 100 nM
Protocol: (§1) Two days before the experiment, Trex-CHO CB1 receptor cells were seeded at 500,000 cells/well into 6-well plates. 1 μg/mL tetracycline was used to induce CB1 receptor expression after 24 hours. Cells were serum starved for at least two hours before the experiment. […] Cell lysates were harvested and the level of ERK activation was determined by western blot. Anti-ERK and Anti-phospho-specific ERK antibodies were obtained from Cell Signaling Inc.
as §1, with “Trex-CHO CB1 receptor-expressing cells were” for “Trex-CHO CB1 receptor cells were”

Daudi cells [4] = assay: ADCC assay; assay type: cell-based
Protocol: For ADCC assay, Daudi target cell concentration was adjusted to 12.5×10^4 cells/mL with ADCC medium. 80 μL of cell suspension (1×10^4 viable cells) was added to each well of a round-bottom 96-well plate. Twenty μL of antibody, serially diluted in ADCC medium, was dispensed to each well in triplicate. […] The plate was incubated at 22-25° C. for 30 minutes. PBMC concentration was adjusted with ADCC medium so that by adding […] of PBMC cells to the target cells, the Effector: Target cell ratio were 25:1 and 50:1, respectively. The plate was centrifuged at 250×g for 4 minutes and then incubated at 37° C. 45 minutes prior to harvesting the supernatant, 20 μL of lysis solution from the CytoTox 96 kit (Promega) was added to maximum lysis control wells. After a 5 hour incubation, the plate was centrifuged at 250×g for 4 minutes. 50 μL of supernatant from each well was transfer to a clean flat-bottom 96 well assay plate. 50 μL of substrate from CytoTox 96 kit (Promega) was added to each well and mixed for 30 seconds. The plate was incubated at room temperature for 30 minutes before 50 μL of stop solution was added to each well and mixed for 30 seconds. The absorbance was read at 490 nm. For data analysis: the % lysis is calculated using GraphPad Prism 5.0 to generate the IC50, as follows: […]

Daudi cells [5] = assay: CDC assay; assay type: cell-based; details: 10% complement
Protocol: For CDC assay Daudi target cells were harvested and cell concentration was adjusted to 80×10^4 cells/mL with cell culture medium. To a flat-bottom 96-well white plate, 25 μL/well of cells was added. Then, 12.5 μL/well of P1C4, Rituximab, Anti-HEL-hIgG1, and Anti-HEL-hIgG2, serially diluted in ADCC medium, were added to each well in duplicate. […] The plates were incubated in the hood for 15 minutes. Human complement, diluted with ADCC medium, was added to the plates containing cells at 12.5 μL/well to reach a final concentration of 10%. For the maximum lysis wells, 5 μL of lysis solution was added. The final volume of all the wells was adjusted to 50 μL with ADCC medium. The plates were incubated at 37° C. for 2 hours before 50 μL/well of CTG solution was added to the cells. The plates were shaken on a microplate shaker for 2 minutes at a speed of 200 and then incubated at room temperature for 10 minutes. The luminescence signal was red with Envision. For data analysis, % cytotoxicity and IC50 was calculated using GraphPad Prism 5.0 as follows: […]

[6] = biological target: A139 iCAPS (human CB1, ICL3 replaced with BRIL); assay: ELISA binding of IgG/Fab to CB1 iCAPS A139; details: IgG and Fab ELISA, Table 8
Protocol: (§2) Purified IgG was tested for binding to purified CB1 receptor (CB1 Conformation Antigen Presenting System (iCAPS)) by ELISA. Non-biotinylated antigens (e.g. empty iCAPS) were coated directly on Maxisorp plates. The primary antibodies were purified IgGs with 1:3 serial dilutions, incubated on the plate for 1 hour. After 3 rounds of washing with PBST, secondary antibodies HRP goat anti-mouse IgG (Abmart) or HRP goat anti-human IgG (Sigma), depending on the species of the IgGs were added and incubated for another hour. The plates were washed three times with PBST, then developed with TMB (Biopanda). HCl was added to the plates to stop the reaction. Absorbance at 450 nm was read on Emax precision microplate reader (Molecular Devices).
(§3) IgG and Fab molecules tested were 36E12B6C2 IgG, 36E12B6C2 Fab, PA13R3-P1C4 IgG, and PA13R3-P1C4 Fab, compared to negative control BRIL binder P1F7 IgG and P1F7 Fab. For IgG antibodies, the secondary antibody used to detect binding was anti-mouse IgG-HRP; for Fabs, the secondary antibody used to detect binding was anti-human IgG-HRP.

[7] = biological target: A138 iCAPS (human CB1, ICL3 replaced with protein 1 sequence); assay: ELISA binding of IgG/Fab to CB1 iCAPS A138; details: IgG and Fab ELISA, Table 8
Protocol: as §2, §3

T2 sequence (P21554 whole entry): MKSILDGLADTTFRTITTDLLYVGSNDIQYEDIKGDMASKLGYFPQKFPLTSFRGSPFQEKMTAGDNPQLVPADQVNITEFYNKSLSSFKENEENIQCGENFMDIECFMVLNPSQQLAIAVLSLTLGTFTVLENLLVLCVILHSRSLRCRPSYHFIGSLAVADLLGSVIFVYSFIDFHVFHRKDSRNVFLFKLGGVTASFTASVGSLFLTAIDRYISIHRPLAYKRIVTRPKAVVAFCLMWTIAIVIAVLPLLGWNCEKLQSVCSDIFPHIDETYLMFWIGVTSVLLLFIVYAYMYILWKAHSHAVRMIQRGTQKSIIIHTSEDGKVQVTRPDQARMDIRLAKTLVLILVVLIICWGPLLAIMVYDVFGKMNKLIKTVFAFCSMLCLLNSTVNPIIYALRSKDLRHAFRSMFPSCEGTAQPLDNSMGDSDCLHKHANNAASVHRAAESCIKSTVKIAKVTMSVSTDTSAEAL
T1 sequence (P21554 whole entry): as above

Molecule: Cc1c(C(=O)NN2CCS(=O)(=O)CC2)nn(-c2ccc(Cl)cc2Cl)c1-c1ccc(C#CCCC#N)cc1 [AM6545, reference compound]
- effect on cAMP levels without exogenous agonist / mechanism [1]: did not affect cAMP levels
- effect on WIN55,212 induced CB1 receptor internalization [2]: blocked

Molecule: Cc1c(C(=O)c2cccc3ccccc23)c2cccc3c2n1[C@H](CN1CCOCC1)CO3 [WIN55,212, reference compound]
- ERK activation by agonist [3]: induced ERK activation

Molecule: Rituximab: positive control antibody in ADCC and CDC assays
- ADCC IC50 (Daudi cells [4]; 25:1 E/T ratio): 0.92 ng/mL
- ADCC IC50 (Daudi cells [4]; 50:1 E/T ratio): 1.19 ng/mL
- CDC IC50 (Daudi cells [5]): 399 ng/mL

B1: 36E12B6C2 Fab: Fab of 36E12B6C2 (antibody, V domains shown)
VH: QVQLQQSGAELVRPGSSVKISCKASGYEFSYYWMNWVKQRPGQGLQWIGQIYPGDGDTNYNGKFKGKATLTADKSSSTAYMHLTSLTSEDSAVYFCARSGGNPFAFWGQGTLVTVSA
VL: DIQMTQTSSSLSASLGDRVTFSCRASQDISNYLNWYQQKPDGTVKLLIYYTSRLHSGVTSRFRGSGSGTDYSLTISNLEQEDVATYFCQQGHTLPWSFGGGTKLEIK
- EC50 [6]: 0.805 nM
- EC50 [7]: 1.02 nM
